# Test results reported in article PMC3701070 (PLoS ONE, 2013).
# Key:
# Test in all cases: Cell growth assay
# Format in all cases: cell-based
# 647-V = conditions: Homo sapiens, 72 h, RAF WT, RAS WT, 3-day, read-out: gIC50
# Method in brief: (§1)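 Cells were read with CellTiter-Glo reagent at time zero and after 72 h of exposure. From the change in signal, the concentration giving half-maximal growth inhibition (gIC50) was calculated.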
# A431 = conditions: Homo sapiens, A-431, 72 h; A431, RAF WT, RAS WT, 3-day; read-out: gIC50
# Method in brief: as §1
# BFTC-905 = conditions: Homo sapiens, 72 h; BFTC-905, RAF WT, NRAS(Q61L), 3-day; read-out: gIC50
# Method in brief: as §1
# CAL-27 = conditions: Homo sapiens, 72 h; CAL-27, RAF WT, RAS WT, 3-day; read-out: gIC50
# Method in brief: as §1
# CAL-62 = conditions: Homo sapiens, 72 h; CAL-62, RAF WT, RAS WT, 3-day; read-out: gIC50
# Method in brief: as §1
# CESS = conditions: Homo sapiens, 72 h, RAF WT, RAS WT, 3-day, read-out: gIC50
# Method in brief: as §1
# CHL-1 = conditions: Homo sapiens, 72 h; CHL-1, RAF WT, RAS WT, 3-day; read-out: gIC50
# Method in brief: as §1
# CaOV3 = conditions: Homo sapiens, Caov-3, 72 h; CaOV3, RAF WT, RAS WT, 3-day; read-out: gIC50
# Method in brief: as §1
# Daudi = conditions: Homo sapiens, 72 h, RAF WT, RAS WT, 3-day, read-out: gIC50
# Method in brief: as §1
# EB-3 = conditions: Homo sapiens, 72 h; EB-3, RAF WT, RAS WT, 3-day; read-out: gIC50
# Method in brief: as §1
# EKVX = conditions: Homo sapiens, 72 h, RAF WT, RAS WT, 3-day, read-out: gIC50
# Method in brief: as §1
# ES-2 = conditions: Homo sapiens, 72 h; ES-2, BRAF(V600E), RAS WT, 3-day; read-out: gIC50
# Method in brief: as §1
# GDM-1 = conditions: Homo sapiens, 72 h; GDM-1, RAF WT, RAS WT, 3-day; read-out: gIC50
# Method in brief: as §1
# HCC-70 = conditions: Homo sapiens, HCC70, 72 h; HCC-70, RAF WT, RAS WT, 3-day; read-out: gIC50
# Method in brief: as §1
# HOS = conditions: Homo sapiens, 72 h, RAF WT, RAS WT, 3-day, read-out: gIC50
# Method in brief: as §1
# HPAF-II = conditions: Homo sapiens, 72 h, RAF WT, RAS WT, 3-day, read-out: gIC50
# Method in brief: as §1
# HuT78 = conditions: Homo sapiens, 72 h; HuT78, RAF WT, RAS WT, 3-day; read-out: gIC50
# Method in brief: as §1
# KHOS-240S = conditions: Homo sapiens, 72 h, RAF WT, RAS WT, 3-day, read-out: gIC50
# Method in brief: as §1
# LS-174T = conditions: Homo sapiens, LS174T, 72 h, RAF WT, KRAS(G12D), 3-day, read-out: gIC50
# Method in brief: as §1
# MDA-MB-468 = conditions: Homo sapiens, 72 h; MDA-MB-468, RAF WT, RAS WT, 3-day; read-out: gIC50
# Method in brief: as §1
# NCI-ADR/RES = conditions: Homo sapiens, 72 h, RAF WT, RAS WT, 3-day, read-out: gIC50
# Method in brief: as §1
# OE-21 = conditions: Homo sapiens, OE21, 72 h; OE-21, RAF WT, RAS WT, 3-day; read-out: gIC50
# Method in brief: as §1
# OE-33 = conditions: Homo sapiens, OE33, 72 h; OE-33, RAF WT, RAS WT, 3-day; read-out: gIC50
# Method in brief: as §1
# SF-268 = conditions: Homo sapiens, 72 h; SF-268, RAF WT, RAS WT, 3-day; read-out: gIC50
# Method in brief: as §1
# SH-4 = conditions: Homo sapiens, 72 h; SH-4, BRAF(V600E), RAS WT, 3-day; read-out: gIC50
# Method in brief: as §1
# SK-BR-3 = conditions: Homo sapiens, 72 h; SK-BR-3, RAF WT, RAS WT, 3-day; read-out: gIC50
# Method in brief: as §1
# SK-UT-1 = conditions: Homo sapiens, 72 h; SK-UT-1, RAF WT, RAS WT, 3-day; read-out: gIC50
# Method in brief: as §1
# SKOV-3 = conditions: Homo sapiens, SK-OV-3, 72 h; SKOV-3, RAF WT, RAS WT, 3-day; read-out: gIC50
# Method in brief: as §1
# SW480 = conditions: Homo sapiens, 72 h; SW480, RAF WT, KRAS(G12V), 3-day; read-out: gIC50
# Method in brief: as §1
# SW579 = conditions: Homo sapiens, 72 h; SW579, RAF WT, RAS WT, 3-day; read-out: gIC50
# Method in brief: as §1
# SW900 = conditions: Homo sapiens, 72 h; SW900, RAF WT, RAS WT, 3-day; read-out: gIC50
# Method in brief: as §1
# T-84 = conditions: Homo sapiens, T84, 72 h; T-84, RAF WT, KRAS(G13D), 3-day; read-out: gIC50
# Method in brief: as §1
# TK-10 = conditions: Homo sapiens, 72 h; TK-10, RAF WT, RAS WT, 3-day; read-out: gIC50
# Method in brief: as §1
# U251 = conditions: Homo sapiens, U-251, 72 h; U251, RAF WT, RAS WT, 3-day; read-out: gIC50
# Method in brief: as §1
structure (smiles),measurement,setting,value
CC(C)(C)c1nc(-c2cccc(NS(=O)(=O)c3c(F)cccc3F)c2F)c(-c2ccnc(N)n2)s1 [dabrafenib],IC50,647-V,> 10 µM
same,IC50,A431,> 10 µM
same,IC50,BFTC-905,> 10 µM
same,IC50,CAL-27,> 10 µM
same,IC50,CAL-62,> 10 µM
same,IC50,CESS,0.497 µM
same,IC50,CHL-1,> 10 µM
same,IC50,CaOV3,> 10 µM
same,IC50,Daudi,> 10 µM
same,IC50,EB-3,> 10 µM
same,IC50,EKVX,> 10 µM
same,IC50,ES-2,0.053 µM
same,IC50,GDM-1,2 µM
same,IC50,HCC-70,> 10 µM
same,IC50,HOS,> 10 µM
same,IC50,HPAF-II,> 10 µM
same,IC50,HuT78,0.052 µM
same,IC50,KHOS-240S,> 10 µM
same,IC50,LS-174T,> 10 µM
same,IC50,MDA-MB-468,> 10 µM
same,IC50,NCI-ADR/RES,> 10 µM
same,IC50,OE-21,> 10 µM
same,IC50,OE-33,> 10 µM
same,IC50,SF-268,> 10 µM
same,IC50,SH-4,0.008 µM
same,IC50,SK-BR-3,> 10 µM
same,IC50,SK-UT-1,> 10 µM
same,IC50,SKOV-3,> 10 µM
same,IC50,SW480,> 10 µM
same,IC50,SW579,> 10 µM
same,IC50,SW900,> 10 µM
same,IC50,T-84,> 10 µM
same,IC50,TK-10,> 10 µM
same,IC50,U251,> 10 µM
